Values quoted from earlier work in US20230190684A1, “METHODS OF TREATING COVID-19 WITH A NICLOSAMIDE COMPOUND” (priority 2020, published 2023).
Where a name gives a salt, the structure may show the parent alone.

Tests used:
[1] = in vivo
[2] = patients treated with niclosamide; literature (McEvoy 1995)

Structure (SMILES) | dissolves in distilled water (distilled water, 20° C.) [mg/L] | systemic bioavailability [1] | Less frequently reported AEs: rash, oral irritation, fever, rectal bleeding, weakness, bad taste in mouth, sweating, palpitation, constipation, alopecia, oedema of an arm, backache, irritability [2] [%] | Other reported AEs: vomiting; abdominal discomfort possibly associated with anorexia, diarrhea, drowsiness, dizziness and headache [2] | solubility in acetone (acetone) | solubility in ether, ethanol and chloroform (ether, ethanol and chloroform) | water solubility (water, 20° C.) [µg/mL]
O=C(Nc1ccc([N+](=O)[O-])cc1Cl)c1cc(Cl)ccc1O [ethanolamine salt, 5-chloro-salicyl-(2-chloro-4-nitro) anilide 2-aminoethanol salt] | 180 to 280 | – | – | – | – | – | –
O=C(Nc1ccc([N+](=O)[O-])cc1Cl)c1cc(Cl)ccc1O [Niclosamide, 5-chloro-N-(2-chloro-4-nitrophenyl)-2-hydroxybenzamide] | – | low | < 1 | 1-4 % of patients | soluble | sparingly soluble | 5 to 8
